Experimental findings from patent US20110319409A1, “7-AZA-QUINAZOLINE PDE10 INHIBITORS” (priority 2010, published 2011) are described below.

For the assay, the target named is T1, human PDE10A2 (Homo sapiens, UniProt Q9Y233).
T1 construct: made in house; host or cells: AD293 cells, transiently transfected; cytoplasmic fraction of the lysate used as enzyme
T1 sequence (Q9Y233 267-1055): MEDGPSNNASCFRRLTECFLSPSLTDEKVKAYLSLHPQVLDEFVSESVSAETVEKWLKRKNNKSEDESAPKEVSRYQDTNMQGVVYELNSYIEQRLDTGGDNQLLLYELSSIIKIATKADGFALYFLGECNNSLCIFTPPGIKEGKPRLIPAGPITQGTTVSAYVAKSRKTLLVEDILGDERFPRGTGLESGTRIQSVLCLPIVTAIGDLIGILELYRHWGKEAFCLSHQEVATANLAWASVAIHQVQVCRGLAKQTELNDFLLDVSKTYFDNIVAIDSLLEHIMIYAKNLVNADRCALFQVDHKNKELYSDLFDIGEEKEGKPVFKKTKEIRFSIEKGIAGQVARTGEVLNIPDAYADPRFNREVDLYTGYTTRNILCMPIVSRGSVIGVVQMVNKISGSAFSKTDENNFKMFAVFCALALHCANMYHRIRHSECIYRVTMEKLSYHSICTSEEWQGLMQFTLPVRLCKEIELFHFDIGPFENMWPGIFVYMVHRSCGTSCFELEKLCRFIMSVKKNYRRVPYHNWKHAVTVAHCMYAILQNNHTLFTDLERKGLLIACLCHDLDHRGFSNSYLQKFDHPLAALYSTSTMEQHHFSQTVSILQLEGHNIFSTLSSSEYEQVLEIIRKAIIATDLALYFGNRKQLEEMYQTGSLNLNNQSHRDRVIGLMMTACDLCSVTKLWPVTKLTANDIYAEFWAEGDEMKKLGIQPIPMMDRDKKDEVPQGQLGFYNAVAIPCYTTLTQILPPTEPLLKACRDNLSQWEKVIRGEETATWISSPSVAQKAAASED
The experiment in a line: PDE10 fluorescence polarization (IMAP FP) assay. As to conditions: human PDE10 enzyme, FAM-labeled cAMP substrate 50 nM. In kind it is biochemical. How it is done:
The activity of the compounds in accordance with the present invention as PDE10 inhibitors may be readily determined without undue experimentation using a fluorescence polarization (FP) methodology well known in the art (Huang, W., et al., J. Biomol Screen, 2002, 7: 215).
In a typical experiment the PDE10 inhibitory activity of the compounds of the present invention is determined in accordance with the following experimental method. PDE10A2 is amplified from human fetal brain cDNA (Clontech, Mountain View, Calif.) using a forward primer corresponding to nucleotides 56-77 of human PDE10A2 (Accession No. AF127480, Genbank Identifier 4894716), containing a Kozak consensus sequence, and a reverse primer Corresponding to nucleotides 2406-2413 of human PDE10A2 (Accession No. AF127480, Genbank Identifier 4894716). Amplification with Easy-A polymerase (Stratagene, La Jolla, Calif.) is carried out at 95° C. for 2 minutes followed by thirty three cycles of 95° C. for 40 seconds, 55° C. for 30 seconds, and 72° C. for 2 minutes 48 seconds. Final extension is at 72° C. for 7 minutes. The PCR product is TA cloned into pcDNA3.2-TOPO (Invitrogen, Carlsbad, Calif.) according to standard protocol.
AD293 cells with 70-80% confluency are transiently transfected with human PDE10A2/pcDNA3.2-TOPO using Lipofectamine 2000 according to manufacturer specifications (Invitrogen, Carlsbad, Calif.). Cells are harvested 48 hours post-transfection and lysed by sonication (setting 3, 10×5 sec pulses) in a buffer containing 20 mM HEPES, 1 mM EDTA and protease inhibitor cocktail (Roche). Lysate is collected by centrifugation at 75,000×g for 20 minutes. Supernatant containing the cytoplasmic fraction is used for evaluation of PDE10A2 activity.
The fluorescence polarization assay for cyclic nucleotide phosphodiesterases is performed using an IMAP® FP kit supplied by Molecular Devices, Sunnyvale, Calif. (product #R8139). IMAP® technology has been applied previously to phosphodiesterase assays (Huang, W., et al., J. Biomol Screen, 2002, 7: 215). Assays are performed at room temperature in 384-well microtiter plates with an incubation volume of 20.2 μL. Solutions of test compounds are prepared in DMSO and serially diluted with DMSO to yield 8 μL of each of 10 solutions differing by 3-fold in concentration, at 32 serial dilutions per plate. 100% inhibition is determined using a known PDE10 inhibitor, which can be any compound that is present at 5,000 times its Ki value in the assay described as follows, such as papaverine (see Siuciak, et al. Neuropharmacology (2006) 51:386-396; Becker, et al. Behav Brain Res (2008) 186(2):155-60; Threlfell, et al., J Pharmacol Exp Ther (2009) 328(3):785-795), 2-{4-[pyridin-4-yl-1-(2,2,2-trifluoroethyl)-1H-pyrazol-3-yl]phenoxymethyl}quinoline succinic acid or 2-[4-(1-methyl-4-pyridin-4-yl-1H-pyrazol-3-yl)-phenoxymethyl]quinoline succinic acid (see Schmidt, et al. J Pharmacol Exp Ther (2008) 325:681-690; Threlfell, et al., J Pharmacol Exp Ther (2009) 328(3): 785-795). 0% of inhibition is determined by using DMSO (1% final concentrations).
A Labcyte Echo 555 (Labcyte, Sunnyvale, Calif.) is used to dispense 200 nL from each well of the titration plate to the 384 well assay plate. A solution of enzyme (1/1600 dilution from aliquots; sufficient to produce 20% substrate conversion) and a separate solution of FAM-labeled cAMP PDE from Molecular Devices (product # R7506), at a final concentration of 50 nM are made in the assay buffer (10 mM Tris HCl, pH 7.2, 10 mM MgCl2, 0.05% NaN3 0.01% Tween-20, and 1 mM DTT). The enzyme and the substrate are then added to the assay plates in two consecutive additions of 10 μL, and then shaken to mix. The reaction is allowed to proceed at room temperature for 30 minutes. A binding solution is then made from the kit components, comprised of 80% Solution A, 20% Solution B and binding reagent at a volume of 1/600 the total binding solution. […]
In general terms: Fluorescence polarisation rises when a labelled molecule tumbles more slowly, as on binding a larger partner.
The term Ki denotes the equilibrium dissociation constant of an inhibitor or competing ligand from its target. Lower therefore signals tighter binding. Consider `Cc1ncccc1-c1cccc(-c2nc(NCc3ccncc3)c3ccncc3n2)c1` [1-1, 2-[3-(2-Methylpyridin-3-yl)phenyl]-N-(pyridin-4-ylmethyl)pyrido[3,4-d]pyrimidin-4-amine], for which the inhibitory constant (Ki) came to 1.4 nM. Under `COc1ncccc1-c1cccc(-c2nc(NCCO)c3ccncc3n2)c1` [1-3, 2-({2-[3-(2-Methoxypyridin-3-yl)phenyl]pyrido[3,4-d]pyrimidin-4-yl}amino)ethanol] stands 2.7 nM.

Consider `COc1ncccc1-c1cccc(-c2nc(NCc3cncnc3)c3ccncc3n2)c1` [1-4, 2-[3-(2-Methoxypyridin-3-yl)phenyl]-N-(pyrimidin-5-ylmethyl)pyrido[3,4-d]pyrimidin-4-amine], for which the affinity, expressed as Ki, was 0.41 nM. Against the preceding compound, the Ki is about 6.6-fold lower. For `c1cc(-c2nc(NCCN3CCOCC3)c3ccncc3n2)cc(-c2cncc3ccccc23)c1` [1-7] the value was 0.55 nM. Under `O=S(=O)(c1cccc2c1CN(c1nc(NCc3ccncc3)c3ccncc3n1)CC2)N1CCOCC1` [1-8, 2-[8-(Morpholin-4-ylsulfonyl)-3,4-dihydroisoquinolin-2(1H)-yl]-N-(pyridin-4-ylmethyl)pyrido[3,4-d]pyrimidin-4-amine] stands 0.23 nM. Under `c1cc(-c2nc(OCc3ccncc3)c3ccncc3n2)cc(-c2ncco2)c1` [1-9, 2-[3-(1,3-Oxazol-2-yl)phenyl]-4-(pyridin-4-ylmethoxy)pyrido[3,4-d]pyrimidine] stands 2.7 nM. `COc1ncccc1-c1cncc(-c2nc(NCc3cncnc3)c3ccncc3n2)c1` [1-11, 2-(2′-methoxy-3,3′-bipyridin-5-yl)-N-(pyrimidin-5-ylmethyl)pyrido[3,4-d]pyrimidin-4-amine] yielded a Ki of 0.84 nM. For `CC(C)OC(=O)c1cccc(-c2nc(NCc3ccncc3)c3ccncc3n2)c1` [1-13, isopropyl 3-{4-[(pyridin-4-ylmethyl)amino]pyrido[3,4-d]pyrimidin-2-yl}benzoate], affinity was put at a Ki of 1.4 nM.

`COc1ncccc1-c1cccc(-c2nc(NCc3ccncc3)c3ccncc3n2)c1` [A-6, 2-{3-[2-(Methyloxy)pyridin-3-yl]phenyl}-N-(pyridin-4-ylmethyl)pyrido[3, d]pyrimidin-4-amine] gave a Ki of 0.4 nM. Consider `c1ccc2c(c1)CCN(c1nc(NCc3ccncc3)c3ccncc3n1)C2` [B-4, 2-(3,4-Dihydroisoquinolin-2(1H)-yl)-N-(pyridin-4-ylmethyl)pyrido[3,4-d]pyrimidin-4-amine], for which affinity was put at a Ki of 5.6 nM.

With `C(=C\c1nc(NCc2cncnc2)c2ccncc2n1)/c1ccccc1` [C-2, 2-[(E)-2-Phenylvinyl]-N-(pyrimidin-5-ylmethyl)pyrido[3,4-d]pyrimidin-4-amine], the inhibitory constant (Ki) was found to be 131 nM.
